Measured values reported in publication PMC4503722, “Novel Phenotypic Outcomes Identified for a Public Collection of Approved Drugs from a Publicly Accessible Panel of Assays” (PLoS ONE, 2015).
Like-named read-outs stand apart in the source and are kept apart here.

Legend:
INS-1E cells = assay: cells; type: cell-based, rat; details: assay number 8; 5 mM glucose;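 further: secreted insulin quantified by homogeneous immunoassay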
SNU-C1 = assay: cells; type: cell-based
Colo320 = assay: cells; type: cell-based
SW480 = assay: cells; type: cell-based
HCT116 = assay: cells; type: cell-based
HeLa cells = assay: cells; type: cell-based;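 on Hela CellCycMod PI 4N summarized IC50: value tracks stimulation of 4N DNA content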
[1] = system: endothelial tube formation in co-cultures of ECFCs and ADSCs treated with VEGF; assay: cells; type: cell-based, human
HT-29 = assay: cells; type: cell-based
RKO = assay: cells; type: cell-based
[2] = system: ECFC/ADSC co-culture cell nuclei number
DLD-1 = assay: cells; type: cell-based
[3] = system: HCT116 cells treated with a GSK3β inhibitor; assay: cells; type: cell-based
[4] = assay number 26, GSK3b inhibitor pretreated

COc1ccc2c(c1OC)C(=O)O[C@@H]2[C@H]1c2cc3c(cc2CCN1C)OCO3 [NCGC00017326-05]
5mMGluc_INS1E SecretionMod IC50/EC50 (INS-1E cells): > 33.33 µM

CN(C)CCOC(C)(c1ccccc1)c1ccccn1.O=C(O)CCC(=O)O (stereo not shown) [NCGC00021147-11]
5mMGluc_INS1E SecretionMod IC50/EC50 (INS-1E cells): > 33.33 µM

CCN(CC)CCOc1ccc(Cc2ccccc2)cc1 [NCGC00024762-04]
5mMGluc_INS1E SecretionMod IC50/EC50 (INS-1E cells): > 33.33 µM

CNCCCCOc1ccccc1Cc1ccccc1 [NCGC00024778-02]
5mMGluc_INS1E SecretionMod IC50/EC50 (INS-1E cells): > 33.33 µM

COc1ccccc1N1CCN(CCCCNC(=O)c2ccc(-c3ccc(C(C)=O)cc3)cc2)CC1 [NCGC00025004-04]
5mMGluc_INS1E SecretionMod IC50/EC50 (INS-1E cells): > 33.33 µM

C[C@@H](C1=C(CCN(C)C)Cc2ccccc21)c1ccccn1.O=C(O)/C=C\C(=O)O [NCGC00025158-02]
5mMGluc_INS1E SecretionMod IC50/EC50 (INS-1E cells): 8.4103 µM

CN1C(=O)CC[C@H]1c1cccnc1 [NCGC00093739-13]
5mMGluc_INS1E SecretionMod IC50/EC50 (INS-1E cells): > 33.33 µM

CCc1oc2ccccc2c1C(=O)c1cc(I)c(O)c(I)c1 [NCGC00160408-03]
Basal_Viability ATP SNU-C1 IC50/EC50 (SNU-C1): 0.001 µM
Basal_Viability ATP Colo 320 IC50/EC50 (Colo320): 0.003 µM
Basal_Viability ATP SW480 IC50/EC50 (SW480): 0.001 µM
Basal_Viability ATP HCT116 IC50/EC50 (HCT116): 0.003 µM
Hela CellCycMod PI 2N IC50/EC50 (HeLa cells): > 10 µM
Hela CellCycMod PI 4N IC50/EC50 (HeLa cells): > 10 µM
Hela CellCycMod PI Cell Number IC50/EC50 (HeLa cells): > 10 µM
Hela CellCycMod PI MI IC50/EC50 (HeLa cells): > 10 µM
Hela CellCycMod PI S Phase IC50/EC50 (HeLa cells): > 10 µM
VEGF_ADSC\ECFC Angio CD31 TubeArea IC50/EC50 [1]: 5.8547 µM
Basal_Viability ATP HT-29 IC50/EC50 (HT-29): 0.001 µM
Basal_Viability ATP RKO IC50/EC50 (RKO): 0.003 µM
VEGF_ADSC\ECFC Angio Hoechst NucArea IC50/EC50 [2]: > 10 µM
Basal_Viability ATP DLD-1 IC50/EC50 (DLD-1): 0.003 µM
GSK3b inh pretreated_Viability ATP HCT116 IC50/EC50 [3]: 0.001 µM

O=C1C(I)=CC(=C(c2cc(I)c(O)c(I)c2)c2ccccc2C(=O)O)C=C1I [NCGC00161636-02]
IC50 (SNU-C1; read-out: Basal_Viability ATP SNU-C1 summarized IC50): 3.76 µM
IC50 (Colo320; read-out: Basal_Viability ATP Colo 320 summarized IC50): 312 nM
IC50 (SW480; read-out: Basal_Viability ATP SW480 summarized IC50): 112 nM
IC50 (HCT116; read-out: Basal_Viability ATP HCT116 summarized IC50): 384 nM
IC50 (HeLa cells; read-out: Hela CellCycMod PI 2N summarized IC50): > 10 µM
IC50 (HeLa cells; read-out: Hela CellCycMod PI 4N summarized IC50): > 10 µM
IC50 (HeLa cells; read-out: Hela CellCycMod PI Cell Number summarized IC50): > 10 µM
IC50 (HeLa cells; read-out: Hela CellCycMod PI MI summarized IC50): > 10 µM
IC50 (HeLa cells; read-out: Hela CellCycMod PI S Phase summarized IC50): > 10 µM
IC50 ([1]; read-out: VEGF_ADSC\ECFC Angio CD31 TubeArea summarized IC50): > 10 µM
IC50 (HT-29; read-out: Basal_Viability ATP HT-29 summarized IC50): 5.73 µM
IC50 (RKO; read-out: Basal_Viability ATP RKO summarized IC50): 37.3 nM
IC50 ([2]; read-out: VEGF_ADSC\ECFC Angio Hoechst NucArea summarized IC50): > 10 µM
IC50 (DLD-1; read-out: Basal_Viability ATP DLD-1 summarized IC50): 13.2 nM
IC50 ([3]; read-out: GSK3b inh pretreated_Viability ATP HCT116 summarized IC50): 54 nM

CO[C@@]12[C@H](COC(N)=O)C3=C(C(=O)C(C)=C(N)C3=O)N1C[C@@H]1N[C@@H]12 [NCGC00163468-05]
Basal_Viability ATP SNU-C1 IC50/EC50 (SNU-C1): 8.1272 µM
Basal_Viability ATP Colo 320 IC50/EC50 (Colo320): 12.5546 µM
Basal_Viability ATP SW480 IC50/EC50 (SW480): 12.0548 µM
Basal_Viability ATP HCT116 IC50/EC50 (HCT116): 13.6261 µM
Hela CellCycMod PI 2N IC50/EC50 (HeLa cells): 0.0133 µM
Hela CellCycMod PI 4N IC50/EC50 (HeLa cells): > 10 µM
Hela CellCycMod PI Cell Number IC50/EC50 (HeLa cells): 0.07733 µM
Hela CellCycMod PI MI IC50/EC50 (HeLa cells): > 10 µM
Hela CellCycMod PI S Phase IC50/EC50 (HeLa cells): 0.1428 µM
VEGF_ADSC\ECFC Angio CD31 TubeArea IC50/EC50 [1]: 0.1019 µM
Basal_Viability ATP HT-29 IC50/EC50 (HT-29): 2.5705 µM
Basal_Viability ATP RKO IC50/EC50 (RKO): 0.9953 µM
VEGF_ADSC\ECFC Angio Hoechst NucArea IC50/EC50 [2]: 5.961 µM
Basal_Viability ATP DLD-1 IC50/EC50 (DLD-1): 5.6318 µM
GSK3b inh pretreated_Viability ATP HCT116 IC50/EC50 [3]: > 20 µM

CCCCC(CC)CN=C(N)NC(N)=NCCCCCCN=C(N)NC(N)=NCC(CC)CCCC (stereo not shown) [NCGC00178352-06]
IC50/EC50, Basal_Viability ATP SNU-C1 (assay number 30) (SNU-C1): 0.0941 µM
IC50/EC50, Basal_Viability ATP Colo 320 (assay number 27) (Colo320): 4.1 nM
IC50/EC50, Basal_Viability ATP SW480 (assay number 24) (SW480): 0.3327 µM
IC50/EC50, Basal_Viability ATP HCT116 (assay number 25) (HCT116): 0.7096 µM
IC50/EC50, Hela CellCycMod PI 2N (assay number 14) (HeLa cells): > 10 µM
IC50/EC50, Hela CellCycMod PI 4N (assay number 16) (HeLa cells): > 10 µM
IC50/EC50, Hela CellCycMod PI Cell Number (assay number 18) (HeLa cells): 0.0186 µM
IC50/EC50, Hela CellCycMod PI MI (assay number 17) (HeLa cells): > 10 µM
IC50/EC50, Hela CellCycMod PI S Phase (assay number 15) (HeLa cells): > 10 µM
IC50/EC50, VEGF_ADSC\ECFC Angio CD31 TubeArea (assay number 2) [1]: 0.4078 µM
IC50/EC50, Basal_Viability ATP HT-29 (assay number 28) (HT-29): 0.0302 µM
IC50/EC50, Basal_Viability ATP RKO (assay number 29) (RKO): 0.2228 µM
IC50/EC50, VEGF_ADSC\ECFC Angio Hoechst NucArea (assay number 3) [2]: > 10 µM
IC50/EC50, Basal_Viability ATP DLD-1 (assay number 23) (DLD-1): 0.0197 µM
IC50/EC50, GSK3b inh pretreated_Viability ATP HCT116 (assay number 26) [3]: 0.3963 µM

O=[N+]([O-])c1ccc(Oc2ccc(N=C=S)cc2)cc1 [NCGC00182049-02]
Basal_Viability ATP SNU-C1 IC50/EC50 (SNU-C1; assay number 30, basal): 4.3298 µM
Basal_Viability ATP Colo 320 IC50/EC50 (Colo320; assay number 27, basal): 1.465 µM
Basal_Viability ATP SW480 IC50/EC50 (SW480; assay number 24, basal): 1.634 µM
Basal_Viability ATP HCT116 IC50/EC50 (HCT116; assay number 25, basal): 2.772 µM
Hela CellCycMod PI 2N IC50/EC50 (HeLa cells; assay number 14, 2N): > 10 µM
Hela CellCycMod PI S Phase IC50/EC50 (HeLa cells; assay number 15, S phase): > 10 µM
Hela CellCycMod PI 4N IC50/EC50 (HeLa cells; assay number 16, 4N): > 10 µM
Hela CellCycMod PI MI IC50/EC50 (HeLa cells; assay number 17, MI): > 10 µM
Hela CellCycMod PI Cell Number IC50/EC50 (HeLa cells; assay number 18, cell number): > 10 µM
VEGF_ADSC\ECFC Angio CD31 TubeArea IC50/EC50 [1]: 3.7244 µM
Basal_Viability ATP HT-29 IC50/EC50 (HT-29; assay number 28, basal): 1.0654 µM
Basal_Viability ATP RKO IC50/EC50 (RKO; assay number 29, basal): 2.341 µM
VEGF_ADSC\ECFC Angio Hoechst NucArea IC50/EC50 [2]: > 10 µM
Basal_Viability ATP DLD-1 IC50/EC50 (DLD-1; assay number 23, basal): 2.102 µM
GSK3b inh pretreated_Viability ATP HCT116 IC50/EC50 [3, 4]: 1.472 µM

Cl.O[C@@H](CNC[C@H](O)[C@H]1CCc2cc(F)ccc2O1)[C@@H]1CCc2cc(F)ccc2O1 [NCGC00263579-01]
Basal_Viability ATP SNU-C1 IC50/EC50 (SNU-C1; assay number 30): 5.0932 µM
Basal_Viability ATP Colo 320 IC50/EC50 (Colo320; assay number 27): > 20 µM
Basal_Viability ATP SW480 IC50/EC50 (SW480; assay number 24): 3.6015 µM
Basal_Viability ATP HCT116 IC50/EC50 (HCT116; assay number 25, basal): 6.4812 µM
Hela CellCycMod PI 2N IC50/EC50 (HeLa cells; assay number 14, 2N): > 10 µM
Hela CellCycMod PI S Phase IC50/EC50 (HeLa cells; assay number 15, S phase): > 10 µM
Hela CellCycMod PI 4N IC50/EC50 (HeLa cells; assay number 16, 4N): > 10 µM
Hela CellCycMod PI MI IC50/EC50 (HeLa cells; assay number 17, MI): > 10 µM
Hela CellCycMod PI Cell Number IC50/EC50 (HeLa cells; assay number 18, cell number): 5.565 µM
VEGF_ADSC\ECFC Angio CD31 TubeArea IC50/EC50 [1]: > 10 µM
Basal_Viability ATP HT-29 IC50/EC50 (HT-29; assay number 28): 4.5046 µM
Basal_Viability ATP RKO IC50/EC50 (RKO; assay number 29): 3.2799 µM
VEGF_ADSC\ECFC Angio Hoechst NucArea IC50/EC50 [2]: > 10 µM
Basal_Viability ATP DLD-1 IC50/EC50 (DLD-1; assay number 23): 15.2632 µM
GSK3b inh pretreated_Viability ATP HCT116 IC50/EC50 [3, 4]: 2.3971 µM
